Reference: publication PMC11238352, “Combination of dual JAK/HDAC inhibitor with regorafenib synergistically reduces tumor growth, metastasis, and regorafenib-induced toxicity in colorectal cancer” (Journal of Experimental & Clinical Cancer Research : CR, 2024)

Key:
SW480 cells [1] = experiment: Annexin V-FITC/PI apoptosis flow cytometry; assay type: cell-based; details: SW480, 72 h, average of three experiments
Method: (§1) To evaluate the effect of drugs on apoptosis, cells were stained by use of TACS Annexin V-FITC apoptosis detection kit obtained from R&D Systems (Minneapolis, MN), following the manufacturer’s protocol. CRC cells (HCT116, RKO, HT29, and SW480) were seeded at 1 × 10^5/dish in triplicates in four groups: vehicle, JAK/HDACi, regorafenib, and the combination for 72 h. The cells were analyzed with a BD LSR FortessaTM Flow Cytometer (BD Biosciences, Mountain View, CA).

RKO cells = experiment: Annexin V-FITC/PI apoptosis flow cytometry; assay type: cell-based; details: 72 h, average of three experiments
Method: as §1

HCT116 cells = experiment: Annexin V-FITC/PI apoptosis flow cytometry; assay type: cell-based; details: HCT116, 72 h, average of three experiments
Method: as §1

HT29 cells = experiment: Annexin V-FITC/PI apoptosis flow cytometry; assay type: cell-based; details: HT29, 72 h, average of three experiments
Method: as §1

SW480 cells [2] = experiment: Cell cycle analysis by flow cytometry; assay type: cell-based; details: SW480, 24 h, 500 nM
Method: To evaluate the effect of drugs on cell cycle arrest, SW480 and RKO cells were seeded, 1 × 10^6/dish in triplicates in four groups: vehicle, JAK/HDACi, regorafenib, and their combination (for 24 h, following procedure described in our previous study. Cell cycle analysis was performed using BD LSR FortessaTM Flow Cytometer (BD Biosciences, Mountain View, CA).

[3] = tested on: luciferase-tagged HT29 cells; experiment: HT29 luciferase experimental metastasis model; assay type: in vivo; details: NSG mice
Method: To assess the effect of JAK/HDACi, regorafenib and their combination drug treatments on metastasis, an experiment was performed with 6-week-old NOD/SCID/IL2γ receptor-null (NSG) mice (male and female) as described. All procedures and experimental protocols were approved and conducted in compliance (IACUC-21501). For metastasis experiments, as described previously, tail vein injections with HT29 cells (0.5 × 10^6) carrying a luciferase expression construct were conducted. Mice were imaged at 0, 10, and 30 days post injection, and treated with vehicle or drugs (with JAK/HDACi, regorafenib and their combination). Drug treatments were performed as described in PDX experiment. Bioluminescence imaging was accomplished using an IVIS Lumina III instrument (Perkin Elmer, Waltham, MA), and mice were injected with luciferin 10 min prior to imaging. After 30 days, mouse lungs and kidneys were dissected, and ex vivo analyses were performed.

[4] = mouse, in vivo
From the text: Upon completion of the experiment for 30 days in HT29 metastasis model, before mice were sacrificed, blood was collected and serum was isolated to evaluate liver and kidney functions to assess toxicity with JAK/HDACi and regorafenib alone, and their combination treatment, using a comprehensive Panel EWrap (Cat# 6330-COMP) by a DRY CHEM 4000 Analyzer.

PDGFR[alpha] = molecular target: T1, PDGFR[alpha] (Homo sapiens, UniProt P16234); experiment: PamStation PTK kinomic profiling; assay type: cell-based; details: change from DMSO control
T1 construct: cell lysates were prepared; endogenous in cells; host or cells: SW480 and RKO
Method: (§2) SW480 and RKO cells were treated with vehicle (DMSO), JAK/HDACi, regorafenib, and their combination for 45 min, and cell lysates were prepared. Tyrosine kinase (PTK) activity (kinomic) profiling was performed using the PamStation®12 platform (PamGene, BV, The Netherlands). As per standard kinomic protocol as described previously. Whole-chip comparative analysis (BioNavigator Upkin PTK v8.0) was performed between groups generating Mean Kinase Statistics (direction of change).

HER2 = molecular target: T2, HER2 (Homo sapiens, UniProt P04626); experiment: PamStation PTK kinomic profiling; assay type: cell-based; details: change from DMSO control
T2 construct: cell lysates were prepared; endogenous in cells; host or cells: SW480 and RKO
Method: as §2

JAK2 = molecular target: T3, JAK2 (Homo sapiens, UniProt O60674); experiment: PamStation PTK kinomic profiling; assay type: cell-based; details: change from DMSO control
T3 construct: cell lysates were prepared; endogenous in cells; host or cells: SW480 and RKO
Method: as §2

FGFR3 = molecular target: T4, FGFR3 (Homo sapiens, UniProt P22607); experiment: PamStation PTK kinomic profiling; assay type: cell-based; details: change from DMSO control
T4 construct: cell lysates were prepared; endogenous in cells; host or cells: SW480 and RKO
Method: as §2

FAK2 = molecular target: T5, FAK2 (Homo sapiens, UniProt Q14289); experiment: PamStation PTK kinomic profiling; assay type: cell-based; details: change from DMSO control
T5 construct: cell lysates were prepared; endogenous in cells; host or cells: SW480 and RKO
Method: as §2

FGFR1 = experiment: PamStation PTK kinomic profiling; assay type: cell-based; details: change from DMSO control
Method: as §2

Axl = molecular target: T6, Axl (Homo sapiens, UniProt P30530); experiment: PamStation PTK kinomic profiling; assay type: cell-based; details: change from DMSO control
T6 construct: cell lysates were prepared; endogenous in cells; host or cells: SW480 and RKO
Method: as §2

Abl = molecular target: T7, Abl (Homo sapiens, UniProt P00519); experiment: PamStation PTK kinomic profiling; assay type: cell-based; details: change from DMSO control
T7 construct: cell lysates were prepared; endogenous in cells; host or cells: SW480 and RKO
Method: as §2

HER4 = molecular target: T8, HER4 (Homo sapiens, UniProt Q15303); experiment: PamStation PTK kinomic profiling; assay type: cell-based; details: change from DMSO control
T8 construct: we conducted kinome analysis on lysates of SW480 and RKO cells; endogenous in cells; host or cells: SW480 and RKO cells
Method: as §2

EGFR = molecular target: T9, EGFR (Homo sapiens, UniProt P00533); experiment: PamStation PTK kinomic profiling; assay type: cell-based; details: change from DMSO control
T9 construct: cell lysates were prepared; endogenous in cells; host or cells: SW480 and RKO
Method: as §2

EphA3 = molecular target: T10, EphA3 (Homo sapiens, UniProt P29320); experiment: PamStation PTK kinomic profiling; assay type: cell-based; details: change from DMSO control
T10 construct: cell lysates were prepared; endogenous in cells; host or cells: SW480 and RKO
Method: as §2

T2 sequence (P04626 23-1255): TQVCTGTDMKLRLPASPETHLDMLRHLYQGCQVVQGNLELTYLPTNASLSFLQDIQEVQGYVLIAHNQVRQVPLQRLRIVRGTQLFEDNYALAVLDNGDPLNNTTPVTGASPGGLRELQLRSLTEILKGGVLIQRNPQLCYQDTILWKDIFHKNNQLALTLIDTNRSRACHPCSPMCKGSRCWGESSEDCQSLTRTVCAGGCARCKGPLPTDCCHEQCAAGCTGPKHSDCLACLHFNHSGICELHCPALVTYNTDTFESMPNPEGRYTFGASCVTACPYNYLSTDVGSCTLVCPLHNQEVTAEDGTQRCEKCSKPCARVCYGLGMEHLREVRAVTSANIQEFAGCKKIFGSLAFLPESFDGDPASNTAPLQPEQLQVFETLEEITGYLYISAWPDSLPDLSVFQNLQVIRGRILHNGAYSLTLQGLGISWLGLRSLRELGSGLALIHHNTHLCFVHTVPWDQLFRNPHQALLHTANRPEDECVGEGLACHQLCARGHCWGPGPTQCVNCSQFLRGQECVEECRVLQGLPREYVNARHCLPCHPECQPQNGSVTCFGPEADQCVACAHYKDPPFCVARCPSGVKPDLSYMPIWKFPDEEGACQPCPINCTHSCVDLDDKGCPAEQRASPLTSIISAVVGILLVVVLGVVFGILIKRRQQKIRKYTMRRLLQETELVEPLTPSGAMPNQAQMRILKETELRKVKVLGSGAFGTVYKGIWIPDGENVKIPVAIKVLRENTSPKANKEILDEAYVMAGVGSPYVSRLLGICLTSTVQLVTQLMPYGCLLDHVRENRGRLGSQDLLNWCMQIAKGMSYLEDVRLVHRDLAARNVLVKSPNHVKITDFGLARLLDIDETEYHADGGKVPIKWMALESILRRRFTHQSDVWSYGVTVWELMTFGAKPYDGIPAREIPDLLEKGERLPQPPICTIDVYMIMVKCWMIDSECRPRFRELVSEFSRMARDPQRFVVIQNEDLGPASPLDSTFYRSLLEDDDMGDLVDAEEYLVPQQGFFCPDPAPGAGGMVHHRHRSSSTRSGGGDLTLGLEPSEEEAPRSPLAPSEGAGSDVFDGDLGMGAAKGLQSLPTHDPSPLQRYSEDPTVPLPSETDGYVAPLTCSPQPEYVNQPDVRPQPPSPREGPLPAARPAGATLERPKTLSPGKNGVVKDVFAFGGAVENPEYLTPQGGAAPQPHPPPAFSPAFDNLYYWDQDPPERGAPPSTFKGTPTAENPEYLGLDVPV
T4 sequence (P22607 23-806): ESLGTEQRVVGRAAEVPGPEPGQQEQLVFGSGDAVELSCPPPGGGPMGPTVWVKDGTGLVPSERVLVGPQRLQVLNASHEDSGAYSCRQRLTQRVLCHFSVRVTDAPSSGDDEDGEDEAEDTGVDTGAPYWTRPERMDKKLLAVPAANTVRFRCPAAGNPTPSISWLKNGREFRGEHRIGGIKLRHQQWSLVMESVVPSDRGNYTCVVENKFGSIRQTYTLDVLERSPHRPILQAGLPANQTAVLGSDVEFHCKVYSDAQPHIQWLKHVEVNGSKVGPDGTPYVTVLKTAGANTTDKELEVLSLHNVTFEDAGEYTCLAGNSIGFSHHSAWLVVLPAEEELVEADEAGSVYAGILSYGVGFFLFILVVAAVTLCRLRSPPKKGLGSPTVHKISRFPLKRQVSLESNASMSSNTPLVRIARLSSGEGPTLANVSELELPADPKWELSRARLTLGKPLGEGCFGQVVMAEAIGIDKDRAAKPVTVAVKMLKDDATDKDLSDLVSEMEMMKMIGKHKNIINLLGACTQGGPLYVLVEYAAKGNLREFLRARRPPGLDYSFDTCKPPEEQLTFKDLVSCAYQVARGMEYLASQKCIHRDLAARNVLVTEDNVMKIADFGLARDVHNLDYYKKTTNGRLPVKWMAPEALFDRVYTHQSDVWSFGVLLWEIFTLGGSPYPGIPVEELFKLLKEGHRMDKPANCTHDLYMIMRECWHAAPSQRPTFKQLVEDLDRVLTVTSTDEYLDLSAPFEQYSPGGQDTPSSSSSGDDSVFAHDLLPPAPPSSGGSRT
T9 sequence (P00533 25-1210): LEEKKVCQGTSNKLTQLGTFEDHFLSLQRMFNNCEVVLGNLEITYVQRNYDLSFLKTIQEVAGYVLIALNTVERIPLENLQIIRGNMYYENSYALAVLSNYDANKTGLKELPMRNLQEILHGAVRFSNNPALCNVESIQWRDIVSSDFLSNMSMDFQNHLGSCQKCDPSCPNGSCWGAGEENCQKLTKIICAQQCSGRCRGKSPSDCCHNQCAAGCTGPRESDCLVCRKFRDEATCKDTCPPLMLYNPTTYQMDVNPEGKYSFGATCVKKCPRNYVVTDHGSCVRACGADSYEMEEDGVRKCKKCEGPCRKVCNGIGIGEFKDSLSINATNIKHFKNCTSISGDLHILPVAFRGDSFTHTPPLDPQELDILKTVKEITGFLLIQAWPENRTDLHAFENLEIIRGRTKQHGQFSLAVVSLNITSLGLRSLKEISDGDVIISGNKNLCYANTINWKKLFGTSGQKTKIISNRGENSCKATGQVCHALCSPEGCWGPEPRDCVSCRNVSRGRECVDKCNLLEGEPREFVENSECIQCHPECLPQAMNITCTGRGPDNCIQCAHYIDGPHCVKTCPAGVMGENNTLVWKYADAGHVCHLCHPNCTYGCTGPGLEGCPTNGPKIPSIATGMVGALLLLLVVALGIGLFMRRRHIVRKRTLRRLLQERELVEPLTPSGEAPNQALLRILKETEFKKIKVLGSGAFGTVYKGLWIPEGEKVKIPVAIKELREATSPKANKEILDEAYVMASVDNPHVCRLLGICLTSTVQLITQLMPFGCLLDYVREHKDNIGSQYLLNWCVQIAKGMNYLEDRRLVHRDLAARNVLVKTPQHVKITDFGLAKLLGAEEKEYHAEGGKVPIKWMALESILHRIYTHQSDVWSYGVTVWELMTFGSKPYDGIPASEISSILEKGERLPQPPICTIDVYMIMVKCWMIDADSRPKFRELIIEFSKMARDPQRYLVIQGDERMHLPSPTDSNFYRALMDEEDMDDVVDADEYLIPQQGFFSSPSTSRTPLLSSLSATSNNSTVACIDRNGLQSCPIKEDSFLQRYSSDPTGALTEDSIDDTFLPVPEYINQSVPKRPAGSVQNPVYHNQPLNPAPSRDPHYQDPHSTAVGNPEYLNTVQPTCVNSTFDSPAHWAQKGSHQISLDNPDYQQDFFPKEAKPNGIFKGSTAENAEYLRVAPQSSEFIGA
T1 sequence (P16234 24-1089): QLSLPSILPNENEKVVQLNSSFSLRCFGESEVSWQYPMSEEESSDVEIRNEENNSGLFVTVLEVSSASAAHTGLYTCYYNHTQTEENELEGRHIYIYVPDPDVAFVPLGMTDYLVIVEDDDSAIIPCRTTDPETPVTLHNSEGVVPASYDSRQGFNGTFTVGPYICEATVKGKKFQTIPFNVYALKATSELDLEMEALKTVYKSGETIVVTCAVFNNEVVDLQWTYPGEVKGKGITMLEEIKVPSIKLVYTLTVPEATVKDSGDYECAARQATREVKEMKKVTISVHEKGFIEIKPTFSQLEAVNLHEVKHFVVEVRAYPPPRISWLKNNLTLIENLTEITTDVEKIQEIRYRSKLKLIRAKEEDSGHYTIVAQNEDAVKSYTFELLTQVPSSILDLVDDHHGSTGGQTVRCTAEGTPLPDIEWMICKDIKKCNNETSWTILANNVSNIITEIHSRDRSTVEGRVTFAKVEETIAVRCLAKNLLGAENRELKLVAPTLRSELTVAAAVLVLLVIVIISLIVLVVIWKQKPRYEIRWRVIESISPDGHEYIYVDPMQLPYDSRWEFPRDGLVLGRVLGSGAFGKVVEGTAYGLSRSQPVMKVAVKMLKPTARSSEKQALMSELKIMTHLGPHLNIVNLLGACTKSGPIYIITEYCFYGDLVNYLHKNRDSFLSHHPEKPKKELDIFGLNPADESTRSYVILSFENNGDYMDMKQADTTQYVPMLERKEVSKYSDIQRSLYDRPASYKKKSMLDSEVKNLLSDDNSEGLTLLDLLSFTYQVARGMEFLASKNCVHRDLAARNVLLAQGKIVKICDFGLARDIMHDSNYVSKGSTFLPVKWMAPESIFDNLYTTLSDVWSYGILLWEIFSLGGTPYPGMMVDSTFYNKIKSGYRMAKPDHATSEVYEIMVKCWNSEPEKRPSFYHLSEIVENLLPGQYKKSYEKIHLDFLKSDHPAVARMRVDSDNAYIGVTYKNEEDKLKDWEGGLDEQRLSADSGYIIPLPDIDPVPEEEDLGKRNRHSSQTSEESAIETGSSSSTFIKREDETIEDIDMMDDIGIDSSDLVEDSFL

Structure (SMILES): CNC(=O)c1cc(Oc2ccc(NC(=O)Nc3ccc(Cl)c(C(F)(F)F)c3)c(F)c2)ccn1 [regorafenib]
- percentage of apoptotic cells (sum of early and late apoptotic cells) (SW480 cells [1]): 11.17%
- percentage of apoptotic cells (sum of early and late apoptotic cells) (RKO cells): 1.18%
- percentage of apoptotic cells (sum of early and late apoptotic cells) (HCT116 cells): 13.62%
- percentage of apoptotic cells (sum of early and late apoptotic cells) (HT29 cells): 5.16%
- cells arrested at the G0-G1 phase (SW480 cells [2]): 39.1%
- cells in synthesis (S) phase (SW480 cells [2]): 50%
- bioluminescence intensity on day 30th [3]: reduced intensities
- ALT [4]: 16 U/L
- Albumin/Globulin [4]: 1.0
- Creatinine [4]: 0.4 mg/dL
- Globulin [4]: 2.6 g/dL
- Total Billirubin [4]: 0.5 mg/dL
- toxicity by serum analysis (liver and kidney functions) [4]: no evident toxicity
- Mean Kinase Statistic, PDGFR[alpha] (PDGFR[alpha]; RKO, 45 min): 0.135
- Mean Kinase Statistic, PDGFR[alpha] (PDGFR[alpha]; SW480, 45 min): -0.175
- Mean Kinase Statistic, HER2 (HER2; RKO, 45 min): 0.090
- Mean Kinase Statistic, HER2 (HER2; SW480, 45 min): -0.225
- Mean Kinase Statistic, JAK2 (JAK2; RKO, 45 min): 0.236
- Mean Kinase Statistic, JAK2 (JAK2; SW480, 45 min): -0.116
- Mean Kinase Statistic, FGFR3 (FGFR3; RKO, 45 min): 0.194
- Mean Kinase Statistic, FGFR3 (FGFR3; SW480, 45 min): -0.292
- Mean Kinase Statistic, FAK2 (FAK2; RKO, 45 min): -0.049
- Mean Kinase Statistic, FAK2 (FAK2; SW480, 45 min): -0.181
- Mean Kinase Statistic, FGFR1 (FGFR1; RKO, 45 min): 0.199
- Mean Kinase Statistic, FGFR1 (FGFR1; SW480, 45 min): -0.180
- Mean Kinase Statistic, Axl (Axl; RKO, 45 min): -0.027
- Mean Kinase Statistic, Axl (Axl; SW480, 45 min): -0.146
- Mean Kinase Statistic, Abl (Abl; RKO, 45 min): -0.036
- Mean Kinase Statistic, Abl (Abl; SW480, 45 min): -0.154
- Mean Kinase Statistic, HER4 (HER4; RKO, 45 min): 0.025
- Mean Kinase Statistic, HER4 (HER4; SW480, 45 min): -0.223
- Mean Kinase Statistic, EGFR (EGFR; RKO, 45 min): 0.026
- Mean Kinase Statistic, EGFR (EGFR; SW480, 45 min): -0.125
- Mean Kinase Statistic, EphA3 (EphA3; RKO, 45 min): 0.028
- Mean Kinase Statistic, EphA3 (EphA3; SW480, 45 min): -0.136
